Each structure is given as a SMILES string. Where “and” joins values, the source holds several entries; their conditions need not be identical. Equal entries are not always repeated.

Mitogen-activated protein kinase kinase kinase kinase 1, sequence (Q92918 whole entry): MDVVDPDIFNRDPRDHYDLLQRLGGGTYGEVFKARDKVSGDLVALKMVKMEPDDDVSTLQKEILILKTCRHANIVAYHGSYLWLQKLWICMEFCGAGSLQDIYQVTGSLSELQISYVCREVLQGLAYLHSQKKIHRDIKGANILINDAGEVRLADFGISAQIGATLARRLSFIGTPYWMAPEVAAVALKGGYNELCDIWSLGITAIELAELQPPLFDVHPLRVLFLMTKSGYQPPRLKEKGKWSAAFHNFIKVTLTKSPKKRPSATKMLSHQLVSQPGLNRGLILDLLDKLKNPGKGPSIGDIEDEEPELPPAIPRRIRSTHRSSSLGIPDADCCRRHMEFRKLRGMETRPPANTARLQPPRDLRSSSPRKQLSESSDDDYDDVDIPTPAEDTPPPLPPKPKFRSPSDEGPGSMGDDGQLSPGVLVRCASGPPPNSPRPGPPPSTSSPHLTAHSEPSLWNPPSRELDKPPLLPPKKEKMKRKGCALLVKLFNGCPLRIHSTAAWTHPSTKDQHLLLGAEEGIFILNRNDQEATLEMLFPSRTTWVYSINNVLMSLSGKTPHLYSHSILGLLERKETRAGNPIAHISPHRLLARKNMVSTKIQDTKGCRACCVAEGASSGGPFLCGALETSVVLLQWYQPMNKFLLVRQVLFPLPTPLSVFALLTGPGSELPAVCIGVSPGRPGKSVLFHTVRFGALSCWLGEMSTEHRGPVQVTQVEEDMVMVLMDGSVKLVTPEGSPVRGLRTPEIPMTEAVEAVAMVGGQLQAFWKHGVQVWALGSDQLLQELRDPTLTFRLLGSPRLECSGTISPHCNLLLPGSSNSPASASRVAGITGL

The experiment concerns the target Mitogen-activated protein kinase kinase kinase kinase 1 (Homo sapiens, UniProt Q92918). In words: HPK1-SLP76 TR-FRET ASSAY. (In general: TR-FRET usually uses a lanthanide donor and a delayed reading to cut background.)
With `COc1cc([C@@H](C)S(C)(=O)=O)ccc1Nc1ncc2c(N)c(F)c(-c3cnc4c(c3C)NCCO4)cc2n1` [WO2022098806, Compound 2-56], the IC50 (in general, the concentration needed to halve the response being measured) is 0.1 nM. `COc1cc([C@H]2CCN(C)C2=O)ccc1Nc1ncc2c(N)c(F)c(-c3cnc4c(c3C)NCCO4)cc2n1` [WO2022098806, Compound 2-57]: the IC50 was 0.91 nM. Regarding `COC1CC(NC(=O)c2ccc(Nc3ncc4c(N)c(F)c(-c5cnc6c(c5C)NCCO6)cc4n3)cc2)C1` (configuration not stated) [WO2022098806, Compound 2-58], the IC50 was determined as 0.08 nM.

`Cc1c(-c2cc3nc(Nc4cc5c(cc4F)CCN(C)C5)ncc3c(N)c2F)cnc2c1NCCO2` [WO2022098806, Compound 2-59] yielded a half-inhibitory concentration (IC50) of 0.05 nM. `Cc1c(-c2cc3nc(Nc4ccc([C@H](C)S(C)(=O)=O)cc4)ncc3c(N)c2F)cnc2c1NCCO2` [WO2022098806, Compound 2-62] came in with an IC50 of 0.06 nM.

Consider `Cc1c(-c2cc3nc(Nc4ccc([C@@H](C)S(C)(=O)=O)cc4)ncc3c(N)c2F)cnc2c1NCCO2` [WO2022098806, Compound 2-63], for which half-maximal inhibition (IC50) required 0.09 nM. Consider `COc1cc2c(cc1Nc1ncc3c(N)c(F)c(-c4ccccc4-c4ccnn4C)cc3n1)CN(C)CC2` [WO2022098806, Compound 2-65], for which the midpoint of inhibition, the IC50, lay at 17 nM. `Cc1c(-c2cc3nc(Nc4ccc(N5CCOC5=O)cc4)ncc3c(N)c2F)cnc2c1NCCO2` [WO2022098806, Compound 2-67] displayed an IC50 of 0.05 nM.

In the case of `COc1nc(C2(C#N)CC2)ccc1Nc1ncc2c(N)c(F)c(-c3cnc4c(c3C)NCCO4)cc2n1` [WO2022098806, Compound 2-68], the midpoint of inhibition, the IC50, lay at 14 nM. Turning to `Cc1c(-c2cc3nc(Nc4ccc5c(c4)CN(C)CC5)ncc3c(N)c2F)cnc2c1NCCO2` [WO2022098806, Compound 2-70], the IC50 was 0.05 nM. Then `COc1ccccc1Nc1ncc2c(N)c(F)c(-c3cnc4c(c3C)NCCO4)cc2n1` [WO2022098806, Compound 2-71], with 0.25 nM; and `COc1cc2c(cc1Nc1ncc3c(N)c(F)c(-c4cnc5c(c4C)NCCO5)cc3n1)CN(C(C)C)CC2` [WO2022098806, Compound 2-72], with 0.12 nM.

In turn, `CNC(=O)c1ccc(Nc2ncc3c(N)c(F)c(-c4cnc5c(c4C)NCCO5)cc3n2)c(OC)c1` [WO2022098806, Compound 2-74] gave a half-inhibitory concentration (IC50) of 0.27 nM. Then `COc1cc2c(cc1Nc1ncc3c(N)c(F)c(-c4cnc5c(c4C)NCCO5)cc3n1)CN(C)CC2(C)C` [WO2022098806, Compound 2-75], with 0.33 nM; and `Cc1c(-c2cc3nc(Nc4ccc5c(c4)CN(C(C)C)CC5)ncc3c(N)c2F)cnc2c1NCCO2` [WO2022098806, Compound 2-76], with 0.03 nM; and `Cc1c(-c2cc3nc(Nc4ccc5c(c4)C4CC5CN4C)ncc3c(N)c2F)cnc2c1NCCO2` (configuration not stated) [WO2022098806, Compound 2-79], with 0.03 nM.

In turn, `CNC(=O)C1(c2ccc(Nc3ncc4c(N)c(F)c(-c5cnc6c(c5C)NCCO6)cc4n3)cc2)CCCCC1` [WO2022098806, Compound 2-80] showed an IC50 of 0.07 nM. The molecule `CNC(=O)C1(c2ccc(Nc3ncc4c(N)c(F)c(-c5cnc6c(c5C)NCCO6)cc4n3)cc2)CC1` [WO2022098806, Compound 2-81] gave a 50% inhibitory concentration (IC50) of 0.04 nM. The value for `CNC(=O)C1(c2ccc(Nc3ncc4c(N)c(F)c(-c5cnc6c(c5C)NCCO6)cc4n3)cc2)CCC1` [WO2022098806, Compound 2-82] was 0.03 nM; that for `CNC(=O)C1(c2ccc(Nc3ncc4c(N)c(F)c(-c5cnc6c(c5C)NCCO6)cc4n3)cc2)CCCC1` [WO2022098806, Compound 2-83] was 0.04 nM; that for `Cc1c(-c2cc3nc(Nc4ccc(CS(C)(=O)=O)nc4)ncc3c(N)c2F)cnc2c1NCCO2` [WO2022098806, Compound 2-84] was 0.02 nM. The molecule `Cc1c(-c2cc3nc(Nc4ccc5c(c4)CN(C)[C@@H](C)C5)ncc3c(N)c2F)cnc2c1NCCO2` [WO2022098806, Compound 2-85] came in with an IC50 of 0.03 nM. The value for `Cc1c(-c2cc3nc(Nc4ccc5c(c4)CN(C)[C@H](C)C5)ncc3c(N)c2F)cnc2c1NCCO2` [WO2022098806, Compound 2-86] was 0.04 nM; that for `CCS(=O)(=O)Cc1ccc(Nc2ncc3c(N)c(F)c(-c4cnc5c(c4C)NCCO5)cc3n2)c(OC)c1` [WO2022098806, Compound 2-89] was 0.01 nM. Then `CNC(=O)c1ccc(Nc2ncc3c(N)c(F)c(-c4cnc5c(c4C)NCCO5)c(Cl)c3n2)c(OC)c1` [WO2022098806, Compound 2-98], with 6.73 nM; and `Cc1c(-c2c(F)c(N)c3cnc(Nc4ccc5c(c4)CN(C(C)C)CC5)nc3c2Cl)cnc2c1NCCO2` [WO2022098806, Compound 2-102], with 0.08 nM and 0.2 nM and 0.04 nM; and `Cc1c(-c2c(F)c(N)c3cnc(Nc4ccc(S(C)(=O)=O)cc4)nc3c2Cl)cnc2c1NCCO2` [WO2022098806, Compound 2-103], with 0.09 nM. `COc1cc2c(cc1Nc1ncc3c(N)c(F)c(-c4cnc5c(c4C)NCCO5)c(Cl)c3n1)CN(C(C)C)CC2` [WO2022098806, Compound 2-106] yielded an IC50 of 0.07 nM. The IC50 values of the last two molecules are within 1.5-fold of each other.

For the molecule `Cc1c(-c2c(F)c(N)c3cnc(Nc4ccc5c(c4)CN(C)CC54CC4)nc3c2Cl)cnc2c1NCCO2` [WO2022098806, Compound 2-108], the 50% inhibitory concentration (IC50) was determined as 0.01 nM. Then `Cc1c(-c2c(F)c(N)c3cnc(Nc4ccc5c(c4)CN(C)CC54CC4)nc3c2C#N)cnc2c1NCCO2` [WO2022098806, Compound 2-109], with 0.05 nM; and `Cc1c(-c2cc3nc(Nc4ccc(CS(C)(=O)=O)cc4)ncc3c(N)c2F)cnc2c1NCCO2` [WO2022098806, Compound 2-114], with 0.05 nM and 0.07 nM and 0.04 nM; and `Cc1c(-c2cc3nc(Nc4ccc5c(c4)CN(C)CCC5)ncc3c(N)c2F)cnc2c1NCCO2` [WO2022098806, Compound 2-117], with 0.04 nM. Then `Cc1c(-c2cc3nc(Nc4ccc5c(c4)CCN(C)CC5)ncc3c(N)c2F)cnc2c1NCCO2` [WO2022098806, Compound 2-119], with 0.04 nM. Then `Cc1c(-c2cc3nc(Nc4ccc5c(c4)CNCCC5)ncc3c(N)c2F)cnc2c1NCCO2` [WO2022098806, Compound 2-120], with 0.01 nM; and `Cc1c(-c2cc3nc(Nc4ccc5c(c4)C4CCC5N4C)ncc3c(N)c2F)cnc2c1NCCO2` (configuration not stated) [WO2022098806, Compound 2-121], with 0.02 nM. Turning to `CN1CCc2ccc(Nc3ncc4c(N)c(F)c(-c5cnc6c(c5Cl)NCCO6)cc4n3)cc2C1` [WO2022098806, Compound 2-124], the IC50 was 0.05 nM and 0.03 nM. The value for `CCS(=O)(=O)Cc1ccc(Nc2ncc3c(N)c(F)c(-c4cnc5c(c4C)NCCO5)cc3n2)c(F)c1` [WO2022098806, Compound 2-125] was 0.1 nM and 0.45 nM and 0.09 nM; that for `Cc1c(-c2cc3nc(Nc4ccc5c(c4)CC(C)(C)N(C)C5)ncc3c(N)c2F)cnc2c1NCCO2` [WO2022098806, Compound 2-126] was 0.09 nM.

Turning to `Cc1c(-c2cc3nc(Nc4cccc5c4CC(C)(C)N(C)C5)ncc3c(N)c2F)cnc2c1NCCO2` [WO2022098806, Compound 2-127], 100 nM corresponded to half-maximal inhibition (IC50). For `Cc1c(-c2cc3nc(Nc4ccc5c(c4)CN(C)C(C)(C)C5)ncc3c(N)c2F)cnc2c1NCCO2` [WO2022098806, Compound 2-128], the IC50 turned out to be 0.03 nM. On to `Cc1c(-c2cc3nc(Nc4ccc5c(c4)CN(C)CC5)ncc3c(N)c2F)cnc2cc[nH]c12` [WO2022098806, Compound 2-130], for which the IC50 is 0.1 nM.

In turn, `Cc1c(-c2c(F)c(N)c3cnc(Nc4ccc(CS(=O)(=O)C(C)C)cc4)nc3c2Cl)cnc2c1NCCO2` [WO2022098806, Compound 2-133] came in with a half-inhibitory concentration (IC50) of 0.4 nM. `Cc1c(-c2c(F)c(N)c3cnc(Nc4ccc(CS(C)(=O)=O)cc4F)nc3c2Cl)cnc2c1NCCO2` [WO2022098806, Compound 2-135] yielded an IC50 of 0.13 nM. In turn, `Cc1c(-c2cc3nc(Nc4ccc(CS(=O)(=O)C5CC5)cc4)ncc3c(N)c2F)cnc2c1NCCO2` [WO2022098806, Compound 2-136] showed an IC50 of 0.1 nM.

The molecule `Cc1c(-c2cc3nc(Nc4ccc5c(c4)CCS(=O)(=O)C5)ncc3c(N)c2F)cnc2c1NCCO2` [WO2022098806, Compound 2-138] showed an IC50 of 0.07 nM. Then `CN1CCc2ccc(Nc3ncc4c(N)c(F)c(-c5cncc6[nH]ccc56)cc4n3)cc2C1` [WO2022098806, Compound 2-139], with 0.04 nM. `Cc1c(-c2cc3nc(Nc4ccc5c(c4)CN(C)CC5)ncc3c(N)c2F)cnc2c1NCC(C)O2` (configuration not stated) [WO2022098806, Compound 2-141] yielded a concentration for half-maximal inhibition (IC50) of 0.05 nM. This IC50 and that of the molecule before are within 1.5-fold of each other.

Regarding `Cc1c(-c2cc3nc(Nc4ccc5c(c4)CN(C(C)C)CC5)ncc3c(N)c2F)cnc2c1NCC(C)O2` (configuration not stated) [WO2022098806, Compound 2-145], inhibition was half-maximal at 0.05 nM (IC50).

Molecule `Cc1c(-c2cc3nc(Nc4ccc([C@@H]5CCN(C)C5=O)cc4)ncc3c(N)c2F)cnc2c1NCCO2` [WO2022098806, Compound 2-146] had an IC50 of 0.05 nM. That is a picomolar value. Then `Cc1c(-c2cc3nc(Nc4ccc([C@H]5CCN(C)C5=O)cc4)ncc3c(N)c2F)cnc2c1NCCO2` [WO2022098806, Compound 2-147], with 0.08 nM; and `Cc1c(-c2cc3nc(Nc4ccc(C5(S(C)(=O)=O)CC5)cc4)ncc3c(N)c2F)cnc2c1NCCO2` [WO2022098806, Compound 2-148], with 0.08 nM. Take `Cc1c(-c2cc3nc(Nc4ccc(CS(=O)(=O)CC(F)(F)F)cc4)ncc3c(N)c2F)cnc2c1NCCO2` [WO2022098806, Compound 2-149]: the 50% inhibitory concentration (IC50) came out at 0.19 nM. Against the preceding molecule, the IC50 is about 2.4-fold higher. The molecule `Cc1c(-c2cc3nc(Nc4ccc5c(c4)CN(C)CC5(C)C)ncc3c(N)c2F)cnc2c1NCCO2` [WO2022098806, Compound 2-150] returned a half-inhibitory concentration (IC50) of 0.06 nM. This IC50 is about 3.2-fold lower than that of the molecule before.

For the molecule `Cc1c(-c2cc3nc(Nc4ccc5c(c4)CN(C)CC54CC4)ncc3c(N)c2F)cnc2c1NCCO2` [WO2022098806, Compound 2-151], the IC50 was 0.05 nM and 0.27 nM. Then `CN1Cc2cc(Nc3ncc4c(N)c(F)c(-c5cnc6c(c5Cl)NCCO6)cc4n3)ccc2C2(CC2)C1` [WO2022098806, Compound 2-152], with 0.07 nM; and `Cc1c(N)cncc1-c1cc2nc(Nc3ccc4c(c3)CN(C)CC43CC3)ncc2c(N)c1F` [WO2022098806, Compound 2-153], with 0.05 nM; and `Cc1c(-c2cc3nc(Nc4ccc(CS(C)(=O)=O)cc4F)ncc3c(N)c2F)cnc2c1NCCO2` [WO2022098806, Compound 2-155], with 0.06 nM.

For the origin of these results see BindingDB's records for patent WO2022098806 (MERCK SHARP & DOHME LLC, 2022).
